# Laboratory results from PubChem BioAssay (NCI).
# “And” between values parts separate entries of the source, which are not always exact repeats. Equal values may be shown once.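 Assay format: 96-well plates, 48-hour exposure. At the GI50, growth is halved. Definition used: TGI = concentration required for complete inhibition of growth.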
# Columns and labels:
# Assay in all cases: DTP human tumour cell line panel, 48 h
# 786-0 renal = system: 786-0 renal
# A498 renal = system: A498 renal
# A549 NSCLC = system: A549 NSCLC
# ACHN renal = system: ACHN renal
# BT-549 breast = system: BT-549 breast
# CAKI-1 renal = system: CAKI-1 renal
# CCRF-CEM leukemia = system: CCRF-CEM leukemia
# COLO 205 colon = system: COLO 205 colon
# EKVX NSCLC = system: EKVX NSCLC
# HCC-2998 colon = system: HCC-2998 colon
# HCT-116 colon = system: HCT-116 colon
# HCT-15 colon = system: HCT-15 colon
# HL-60(TB) leukemia = system: HL-60(TB) leukemia
# HOP-62 NSCLC = system: HOP-62 NSCLC
# HOP-92 NSCLC = system: HOP-92 NSCLC
# HS 578T breast = system: HS 578T breast
# HT29 colon = system: HT29 colon
# IGROV1 ovarian = system: IGROV1 ovarian
# K-562 leukemia = system: K-562 leukemia
# LOX IMVI melanoma = system: LOX IMVI melanoma
# M14 melanoma = system: M14 melanoma
# MALME-3M melanoma = system: MALME-3M melanoma
# MCF7 breast = system: MCF7 breast
# MDA-MB-231 breast = system: MDA-MB-231 breast
# MDA-MB-435 = system: MDA-MB-435
# MOLT-4 leukemia = system: MOLT-4 leukemia
# NCI-H226 lung = system: NCI-H226 lung
# NCI-H23 lung = system: NCI-H23 lung
# NCI-H460 lung = system: NCI-H460 lung
# NCI-H522 lung = system: NCI-H522 lung
# NCI/ADR-RES ovarian = system: NCI/ADR-RES ovarian
# OVCAR-4 ovarian = system: OVCAR-4 ovarian
# OVCAR-5 ovarian = system: OVCAR-5 ovarian
# OVCAR-8 ovarian = system: OVCAR-8 ovarian
# PC-3 prostate = system: PC-3 prostate
# RPMI-8226 leukemia = system: RPMI-8226 leukemia
# RXF 393 renal = system: RXF 393 renal
# SF-295 CNS = system: SF-295 CNS
# SF-539 CNS = system: SF-539 CNS
# SK-MEL-2 melanoma = system: SK-MEL-2 melanoma
# SK-MEL-28 melanoma = system: SK-MEL-28 melanoma
# SK-MEL-5 melanoma = system: SK-MEL-5 melanoma
# SK-OV-3 ovarian = system: SK-OV-3 ovarian
# SN12C renal = system: SN12C renal
# SNB-19 CNS = system: SNB-19 CNS
# SNB-75 CNS = system: SNB-75 CNS
# SR leukemia = system: SR leukemia
# SW-620 colon = system: SW-620 colon
# T-47D breast = system: T-47D breast
# TK-10 renal = system: TK-10 renal
# U251 CNS = system: U251 CNS
# UACC-257 melanoma = system: UACC-257 melanoma
# UACC-62 melanoma = system: UACC-62 melanoma
# UO-31 renal = system: UO-31 renal
# DU-145 prostate = system: DU-145 prostate
# SF-268 CNS = system: SF-268 CNS
smiles,measurement,setting,value
COc1cc(C)c(-c2ccc(=O)c(OC)cc2C)c(OC)c1OC,GI50,786-0 renal,> 100 µM and 46.2 µM
same,TGI,786-0 renal,> 100 µM
same,GI50,A498 renal,> 100 µM and 14 µM
same,TGI,A498 renal,> 100 µM and 52.5 µM
same,GI50,A549 NSCLC,> 100 µM and 35.5 µM
same,TGI,A549 NSCLC,> 100 µM
same,GI50,ACHN renal,> 100 µM and 85.1 µM
same,TGI,ACHN renal,> 100 µM
same,GI50,BT-549 breast,> 100 µM and 15.2 µM
same,TGI,BT-549 breast,> 100 µM
same,GI50,CAKI-1 renal,> 100 µM and 19.5 µM
same,TGI,CAKI-1 renal,> 100 µM
same,GI50,CCRF-CEM leukemia,> 100 µM and 29.7 µM
same,TGI,CCRF-CEM leukemia,> 100 µM
same,GI50,COLO 205 colon,> 100 µM and 21.8 µM
same,TGI,COLO 205 colon,> 100 µM and 58.6 µM
same,GI50,EKVX NSCLC,> 100 µM and 66.5 µM
same,TGI,EKVX NSCLC,> 100 µM
same,GI50,HCC-2998 colon,> 100 µM and 33 µM
same,TGI,HCC-2998 colon,> 100 µM
same,GI50,HCT-116 colon,> 100 µM and 25 µM
same,TGI,HCT-116 colon,> 100 µM
same,GI50,HCT-15 colon,> 100 µM and 12.9 µM
same,TGI,HCT-15 colon,> 100 µM
same,GI50,HL-60(TB) leukemia,> 100 µM and 21 µM
same,TGI,HL-60(TB) leukemia,> 100 µM and 94.6 µM
same,GI50,HOP-62 NSCLC,> 100 µM and 34.3 µM
same,TGI,HOP-62 NSCLC,> 100 µM
same,GI50,HOP-92 NSCLC,> 100 µM and 10.2 µM
same,TGI,HOP-92 NSCLC,> 100 µM
same,GI50,HS 578T breast,> 100 µM and 15.9 µM
same,TGI,HS 578T breast,> 100 µM and 64.1 µM
same,GI50,HT29 colon,> 100 µM and 25.2 µM
same,TGI,HT29 colon,> 100 µM and 93.5 µM
same,GI50,IGROV1 ovarian,> 100 µM and 47.3 µM
same,TGI,IGROV1 ovarian,> 100 µM
same,TGI,K-562 leukemia,> 100 µM
same,TGI,LOX IMVI melanoma,> 100 µM
same,GI50,M14 melanoma,> 100 µM and 17.3 µM
same,TGI,M14 melanoma,> 100 µM
same,GI50,MALME-3M melanoma,> 100 µM and 37.8 µM
same,TGI,MALME-3M melanoma,> 100 µM
same,GI50,MCF7 breast,> 100 µM and 25.3 µM
same,TGI,MCF7 breast,> 100 µM
same,GI50,MDA-MB-231 breast,> 100 µM and 23.5 µM
same,TGI,MDA-MB-231 breast,> 100 µM
same,TGI,MDA-MB-435,> 100 µM and 15.3 µM
same,GI50,MOLT-4 leukemia,> 100 µM and 36 µM
same,TGI,MOLT-4 leukemia,> 100 µM
same,GI50,NCI-H226 lung,> 100 µM and 86.5 µM
same,TGI,NCI-H226 lung,> 100 µM
same,GI50,NCI-H23 lung,> 100 µM and 46.9 µM
same,TGI,NCI-H23 lung,> 100 µM
same,GI50,NCI-H460 lung,> 100 µM and 31.7 µM
same,TGI,NCI-H460 lung,> 100 µM
same,GI50,NCI-H522 lung,> 100 µM and 20.2 µM
same,TGI,NCI-H522 lung,> 100 µM and 70.1 µM
same,GI50,NCI/ADR-RES ovarian,> 100 µM and 27.9 µM
same,TGI,NCI/ADR-RES ovarian,> 100 µM
same,GI50,OVCAR-4 ovarian,> 100 µM and 92.2 µM
same,TGI,OVCAR-4 ovarian,> 100 µM
same,GI50,OVCAR-5 ovarian,> 100 µM and 41.8 µM
same,TGI,OVCAR-5 ovarian,> 100 µM
same,GI50,OVCAR-8 ovarian,> 100 µM and 35.3 µM
same,TGI,OVCAR-8 ovarian,> 100 µM
same,GI50,PC-3 prostate,> 100 µM and 31.9 µM
same,TGI,PC-3 prostate,> 100 µM
same,GI50,RPMI-8226 leukemia,> 100 µM and 41.4 µM
same,TGI,RPMI-8226 leukemia,> 100 µM
same,GI50,RXF 393 renal,> 100 µM and 21.1 µM
same,TGI,RXF 393 renal,> 100 µM and 76.5 µM
same,GI50,SF-295 CNS,> 100 µM and 22.9 µM
same,TGI,SF-295 CNS,> 100 µM
same,GI50,SF-539 CNS,> 100 µM and 25.8 µM
same,TGI,SF-539 CNS,> 100 µM
same,GI50,SK-MEL-2 melanoma,> 100 µM and 20.5 µM
same,TGI,SK-MEL-2 melanoma,> 100 µM
same,GI50,SK-MEL-28 melanoma,> 100 µM
same,TGI,SK-MEL-28 melanoma,> 100 µM
same,GI50,SK-MEL-5 melanoma,> 100 µM and 46.1 µM
same,TGI,SK-MEL-5 melanoma,> 100 µM
same,GI50,SK-OV-3 ovarian,> 100 µM and 27.1 µM
same,TGI,SK-OV-3 ovarian,> 100 µM
same,GI50,SN12C renal,> 100 µM and 38 µM
same,TGI,SN12C renal,> 100 µM
same,GI50,SNB-19 CNS,> 100 µM and 29.3 µM
same,TGI,SNB-19 CNS,> 100 µM
same,GI50,SNB-75 CNS,39.4 µM and 5.4 µM
same,TGI,SNB-75 CNS,> 100 µM and 43.4 µM
same,TGI,SR leukemia,> 100 µM
same,GI50,SW-620 colon,> 100 µM and 27.9 µM
same,TGI,SW-620 colon,> 100 µM
same,GI50,T-47D breast,> 100 µM and 26.3 µM
same,TGI,T-47D breast,> 100 µM
same,GI50,TK-10 renal,> 100 µM
same,TGI,TK-10 renal,> 100 µM
same,GI50,U251 CNS,> 100 µM and 30.9 µM
same,TGI,U251 CNS,> 100 µM
same,GI50,UACC-257 melanoma,> 100 µM and 71.3 µM
same,TGI,UACC-257 melanoma,> 100 µM
same,GI50,UACC-62 melanoma,> 100 µM and 16.6 µM
same,TGI,UACC-62 melanoma,> 100 µM
same,GI50,UO-31 renal,> 100 µM and 45.4 µM
same,TGI,UO-31 renal,> 100 µM
NC(N)=Nc1ccc(Oc2cccc(Nc3ccc(Br)c(C(F)(F)F)c3)c2)cc1,GI50,786-0 renal,1.6 µM
same,TGI,786-0 renal,3.12 µM
same,GI50,A498 renal,1.49 µM
same,TGI,A498 renal,2.91 µM
same,GI50,ACHN renal,2.69 µM
same,TGI,ACHN renal,7.84 µM
same,GI50,CAKI-1 renal,1.6 µM
same,TGI,CAKI-1 renal,3.14 µM
same,GI50,CCRF-CEM leukemia,1.97 µM
same,TGI,CCRF-CEM leukemia,5.5 µM
same,GI50,DU-145 prostate,1.8 µM
same,TGI,DU-145 prostate,3.31 µM
same,GI50,HCT-15 colon,2.05 µM
same,TGI,HCT-15 colon,4.83 µM
same,GI50,HOP-92 NSCLC,0.829 µM
same,TGI,HOP-92 NSCLC,2.16 µM
same,GI50,HT29 colon,1.56 µM
same,TGI,HT29 colon,3.12 µM
same,GI50,IGROV1 ovarian,1.19 µM
same,TGI,IGROV1 ovarian,2.76 µM
same,GI50,M14 melanoma,1.69 µM
same,TGI,M14 melanoma,3.29 µM
same,GI50,MALME-3M melanoma,1.8 µM
same,TGI,MALME-3M melanoma,4.04 µM
same,GI50,NCI-H23 lung,1.67 µM
same,TGI,NCI-H23 lung,3.37 µM
same,GI50,NCI-H460 lung,1.87 µM
same,TGI,NCI-H460 lung,3.51 µM
same,GI50,NCI-H522 lung,1.6 µM
same,TGI,NCI-H522 lung,3.35 µM
same,GI50,NCI/ADR-RES ovarian,14.6 µM
same,TGI,NCI/ADR-RES ovarian,37.5 µM
same,GI50,OVCAR-5 ovarian,1.63 µM
same,TGI,OVCAR-5 ovarian,3.07 µM
same,GI50,PC-3 prostate,1.4 µM
same,TGI,PC-3 prostate,2.73 µM
same,GI50,RPMI-8226 leukemia,1.97 µM
same,TGI,RPMI-8226 leukemia,4.61 µM
same,GI50,RXF 393 renal,1.75 µM
same,TGI,RXF 393 renal,3.27 µM
same,GI50,SF-268 CNS,1.68 µM
same,TGI,SF-268 CNS,3.45 µM
same,GI50,SF-539 CNS,1.63 µM
same,TGI,SF-539 CNS,3.09 µM
same,GI50,SK-MEL-28 melanoma,1.77 µM
same,TGI,SK-MEL-28 melanoma,3.22 µM
same,GI50,SK-OV-3 ovarian,2.11 µM
same,TGI,SK-OV-3 ovarian,5.12 µM
same,GI50,SNB-75 CNS,1.23 µM
same,TGI,SNB-75 CNS,2.56 µM
same,GI50,TK-10 renal,1.88 µM
same,TGI,TK-10 renal,4.11 µM
same,GI50,UACC-62 melanoma,1.77 µM
same,TGI,UACC-62 melanoma,3.28 µM
same,GI50,UO-31 renal,3.08 µM
same,TGI,UO-31 renal,11.5 µM
